The text below walks through data of patent US10894798B2, “Substituted dihydropyrrolopyrazole derivative” (UBE INDUSTRIES, LTD., priority 2015, dated 2021).

SMILES strings stand for the structures.

One assay addresses T1, PLK1 (Homo sapiens, UniProt P53350).
T1 construct: purchased Carna Biosciences, Inc. 05-157
Briefly: PLK1 enzyme (polo-like kinase) inhibition test. It counts as biochemical. As to conditions: [γ-33P]ATP, casein substrate; Ki=IC50/(1+S/Km); read-out: Ki value of PLK1 inhibitory activity. In outline:
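Recombinant PLK1 phosphorylates casein with [γ-^33P]ATP in MOPS buffer (pH 7.0) containing DTT and magnesium acetate, 20 min at 30° C. Reaction stopped with TCA; washed precipitate counted by liquid scintillation. IC50 for inhibition of ^33P incorporation into casein, converted to Ki via Ki=IC50/(1+S/Km).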

The target in the next assay is T2, CDK7 (Homo sapiens, UniProt P50613).
T2 construct: purchased Carna Biosciences, Inc. 04-108
Kind of assay: CDK7 enzyme inhibition test. It counts as biochemical. As to conditions: [γ-33P]ATP, MBP substrate, 60 min preincubation at 25°C; Ki=IC50/(1+S/Km); read-out: Ki value of CDK7 inhibitory activity. In outline:
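Commercial human CDK7 with myelin basic protein substrate in HEPES pH 7.4 buffer with DTT, Triton X-100, MgCl2; compound preincubated 60 min at 25° C, then reaction run 20 min at 30° C after adding [γ-^33P]ATP (500 μM solution). TCA-precipitated ^33P-MBP counted by scintillation; IC50 converted to Ki via Ki=IC50/(1+S/Km).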

Another assay concerns the target T3, CDK2 (Homo sapiens, UniProt P24941).
T3 construct: purchased Invitrogen Corp. PV3267
Briefly: CDK2 enzyme inhibition test. It counts as biochemical. As to conditions: [γ-33P]ATP, MBP substrate; Ki=IC50/(1+S/Km); read-out: Ki value of CDK2 inhibitory activity. In outline:
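Commercial CDK2 phosphorylated MBP with [γ-33P]ATP (500 μM solution before mixing) in HEPES pH 7.4 buffer with DTT, Triton X-100 and MgCl2 for 20 min at 30 °C. TCA-precipitated 33P-MBP was counted by scintillation to give the IC50. Ki = IC50/(1+S/Km), with S the ATP concentration in the reaction.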

Assay [1] relates to human large intestine cancer cell line (HCT-116). Briefly: Human large intestine cancer (HCT-116) cell growth inhibition test. It counts as cell-based. As to conditions: HCT-116, 72 h, culture for 3 days, sulforhodamine B, read-out: GI50 value, HCT-116 cell growth inhibition. Put shortly: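 HCT-116 cells were seeded at 0.5 to 2.0×10^3 cells/well in McCoy's 5A with 10% FBS and dosed with compound at 0.1% final DMSO after overnight culture. Growth was measured by sulforhodamine B absorbance after 3 days. GI50 was calculated from the inhibition rate at each concentration.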

T2 sequence (P50613 whole entry): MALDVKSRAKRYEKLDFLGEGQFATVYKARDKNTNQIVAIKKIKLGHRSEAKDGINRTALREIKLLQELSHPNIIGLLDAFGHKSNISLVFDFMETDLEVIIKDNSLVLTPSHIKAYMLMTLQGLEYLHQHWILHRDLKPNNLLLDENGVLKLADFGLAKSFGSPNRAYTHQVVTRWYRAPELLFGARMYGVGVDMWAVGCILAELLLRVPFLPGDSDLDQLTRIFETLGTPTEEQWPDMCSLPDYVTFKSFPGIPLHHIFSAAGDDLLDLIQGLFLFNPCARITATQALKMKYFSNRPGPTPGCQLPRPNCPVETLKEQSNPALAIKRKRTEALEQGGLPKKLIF
T2 sequence (P51946 whole entry partner): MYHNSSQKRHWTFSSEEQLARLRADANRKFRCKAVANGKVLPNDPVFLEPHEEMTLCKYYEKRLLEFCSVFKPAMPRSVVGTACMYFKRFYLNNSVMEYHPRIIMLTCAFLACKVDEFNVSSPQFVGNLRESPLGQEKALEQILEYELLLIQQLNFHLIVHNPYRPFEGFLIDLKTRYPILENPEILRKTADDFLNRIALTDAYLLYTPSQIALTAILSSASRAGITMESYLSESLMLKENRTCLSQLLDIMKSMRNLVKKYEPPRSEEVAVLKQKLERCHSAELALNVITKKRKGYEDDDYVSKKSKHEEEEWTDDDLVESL
T2 sequence (P51948 whole entry partner): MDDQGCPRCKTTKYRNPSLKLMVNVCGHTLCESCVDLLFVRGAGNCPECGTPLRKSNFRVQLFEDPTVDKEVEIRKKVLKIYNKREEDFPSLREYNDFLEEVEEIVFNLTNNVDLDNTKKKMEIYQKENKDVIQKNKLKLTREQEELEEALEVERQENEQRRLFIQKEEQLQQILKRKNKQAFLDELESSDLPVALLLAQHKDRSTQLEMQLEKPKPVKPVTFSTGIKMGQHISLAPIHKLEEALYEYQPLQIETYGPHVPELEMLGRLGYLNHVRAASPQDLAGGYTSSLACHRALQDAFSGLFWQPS
T1 sequence (P53350 whole entry): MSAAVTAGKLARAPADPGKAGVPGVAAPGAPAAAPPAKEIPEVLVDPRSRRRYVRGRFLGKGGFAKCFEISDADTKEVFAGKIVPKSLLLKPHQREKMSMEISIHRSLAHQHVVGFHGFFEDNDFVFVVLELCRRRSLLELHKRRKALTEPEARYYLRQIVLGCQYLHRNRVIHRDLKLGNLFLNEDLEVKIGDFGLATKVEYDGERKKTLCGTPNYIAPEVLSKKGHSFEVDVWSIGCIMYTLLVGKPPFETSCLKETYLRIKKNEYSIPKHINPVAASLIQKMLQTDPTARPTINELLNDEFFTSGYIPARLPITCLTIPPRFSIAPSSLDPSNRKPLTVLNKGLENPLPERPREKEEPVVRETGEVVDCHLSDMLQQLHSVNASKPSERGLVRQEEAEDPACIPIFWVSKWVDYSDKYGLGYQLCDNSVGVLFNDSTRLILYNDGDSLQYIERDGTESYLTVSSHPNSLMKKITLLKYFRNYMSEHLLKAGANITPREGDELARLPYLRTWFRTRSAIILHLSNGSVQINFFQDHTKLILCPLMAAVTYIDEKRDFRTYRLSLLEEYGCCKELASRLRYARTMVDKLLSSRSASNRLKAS

A word on the Ki: it is the equilibrium dissociation constant of an inhibitor or competing ligand from its target. Usually GI50 stands for the concentration that inhibits growth by half. Turning to `Cc1ccc(NC(=O)N2Cc3c(NC(=O)C4([Si](C)(C)C)CCC4)n[nH]c3C2(C)C)c(C)c1` [IV-377, N-(2,4-Dimethylphenyl)-6,6-dimethyl-3-[1-(trimethylsilyl)cyclobutanecarboxamido]-4,6-dihydropyrrolo[3,4-c]pyrazole-5(1H)-carboxamide], the Ki on PLK1 is not below 5000 nM; at CDK7, not above 50 nM; on CDK2 it was not below 1000 nM. Further, the GI50 in assay [1] was not above 100 nM.
As for `CCc1ccccc1NC(=O)N1Cc2c(NC(=O)C3([Si](C)(C)C)CCC3)n[nH]c2C1(C)C` [IV-27, N-(2-Ethylphenyl)-6,6-dimethyl-3-[1-(trimethylsilyl)cyclobutanecarboxamido]-4,6-dihydropyrrolo[3,4-c]pyrazole-5(1H)-carboxamide], the Ki on PLK1 was not below 5000 nM; at CDK7, not above 50 nM; on CDK2 it was not below 1000 nM. Besides, the GI50 in assay [1] was not above 100 nM.
`CC1(C)c2[nH]nc(NC(=O)C3([Si](C)(C)C)CCC3)c2CN1C(=O)Nc1c(Cl)cccc1C1CC1` [IV-231, N-(2-Chloro-6-cyclopropylphenyl)-6,6-dimethyl-3-[1-(trimethylsilyl)cyclobutanecarboxamido]-4,6-dihydropyrrolo[3,4-c]pyrazole-5(1H)-carboxamide]: the Ki on PLK1 was not below 5000 nM; at CDK7 it was not above 50 nM; at CDK2 it was not below 1000 nM. Also, the GI50 in assay [1] was not above 100 nM.
In the case of `CC1(C)c2[nH]nc(NC(=O)C3([Si](C)(C)C)CCC3)c2CN1C(=O)Nc1c(F)ccc2c1OCC2` [IV-997, N-(6-Fluoro-2,3-dihydrobenzofuran-7-yl)-6,6-dimethyl-3-[1-(trimethylsilyl)cyclobutanecarboxamido]-4,6-dihydropyrrolo[3,4-c]pyrazole-5(1H)-carboxamide], the Ki was not below 5000 nM at PLK1, not above 50 nM on CDK7 and not below 1000 nM at CDK2. Also, the GI50 in assay [1] was not above 100 nM.
On the same counts, the results for `COc1cc(F)c(NC(=O)N2Cc3c(NC(=O)C4([Si](C)(C)C)CCC4)n[nH]c3C2(C)C)c(F)c1` [IV-615, N-(2,6-Difluoro-4-methoxyphenyl)-6,6-dimethyl-3-[1-(trimethylsilyl)cyclobutanecarboxamido]-4,6-dihydropyrrolo[3,4-c]pyrazole-5(1H)-carboxamide] are not below 5000 nM, not above 50 nM, not below 1000 nM and not above 100 nM.
On the same counts, the results for `CCc1cccc(F)c1NC(=O)N1Cc2c(NC(=O)C3([Si](C)(C)C)CC3)n[nH]c2C1(C)C` [III-137, N-(2-Ethyl-6-fluorophenyl)-6,6-dimethyl-3-[1-(trimethylsilyl)cyclopropanecarboxamido]-4,6-dihydropyrrolo[3,4-c]pyrazole-5 (1H)-carboxamide] are not below 5000 nM, not above 50 nM, not below 1000 nM and not above 100 nM.
As to `Cc1ccc(Cl)cc1NC(=O)N1Cc2c(NC(=O)C3([Si](C)(C)C)CCC3)n[nH]c2C1(C)C` [IV-367, N-(5-Chloro-2-methylphenyl)-6,6-dimethyl-3-[1-(trimethylsilyl)cyclobutanecarboxamido]-4,6-dihydropyrrolo[3,4-c]pyrazole-5 (1H)-carboxamide], the figures for the Ki on PLK1, at CDK7 and at CDK2 were not below 5000 nM, not above 50 nM and not below 1000 nM, respectively. Also, the GI50 in assay [1] is not above 100 nM.
The matching figures for `CC1(C)c2[nH]nc(NC(=O)C3([Si](C)(C)C)CC3)c2CN1C(=O)Nc1c(Cl)cccc1Cl` [III-199, N-(2,6-Dichlorophenyl)-6,6-dimethyl-3-[1-(trimethylsilyl)cyclopropanecarboxamido]-4,6-dihydropyrrolo[3,4-c]pyrazole-5(1H)-carboxamide]: not below 5000 nM, not above 50 nM, not below 1000 nM and not above 100 nM.
The matching figures for `Cc1c(F)cccc1NC(=O)N1Cc2c(NC(=O)C3([Si](C)(C)C)CCC3)n[nH]c2C1(C)C` [IV-357, N-(3-Fluoro-2-methylphenyl)-6,6-dimethyl-3-[1-(trimethylsilyl)cyclobutanecarboxamido]-4,6-dihydropyrrolo[3,4-c]pyrazole-5 (1H)-carboxamide]: not below 5000 nM, not above 50 nM, not below 1000 nM and not above 100 nM.
As for `CC1(C)c2[nH]nc(NC(=O)C3([Si](C)(C)C)CC3)c2CN1C(=O)Nc1c(F)cccc1OC(F)F` [III-169, N-[2-(Difluoromethoxy)-6-fluorophenyl]-6,6-dimethyl-3-[1-(trimethylsilyl)cyclopropanecarboxamido]-4,6-dihydropyrrolo[3,4-c]pyrazole-5(1H)-carboxamide], the values for the Ki at PLK1, on CDK7 and on CDK2 were not below 5000 nM, not above 50 nM and not below 1000 nM, respectively. In assay [1], the GI50 is not above 100 nM.
The matching figures for `CCc1cccc(F)c1NC(=O)N1Cc2c(NC(=O)C(C)(C)[Si](C)(C)C)n[nH]c2C1(C)C` [II-137, N-(2-Ethyl-6-fluorophenyl)-6,6-dimethyl-3-[2-methyl-2-(trimethylsilyl)propanamido]-4,6-dihydropyrrolo[3,4-c]pyrazole-5(1H)-carboxamide]: not below 5000 nM, not above 50 nM, not below 1000 nM and not above 100 nM.
With `CC1(C)c2[nH]nc(NC(=O)C3([Si](C)(C)C)CCC3)c2CN1C(=O)Nc1ccccc1OC(F)F` [IV-87, N-[2-(Difluoromethoxy)phenyl]-6,6-dimethyl-3-[1-(trimethylsilyl)cyclobutanecarboxamido]-4,6-dihydropyrrolo[3,4-c]pyrazole-5(1H)-carboxamide], the results for the inhibition constant Ki on PLK1, at CDK7 and at CDK2 were not below 5000 nM, not above 50 nM and not below 1000 nM, respectively. In addition, the GI50 in assay [1] is not above 100 nM.
On to `CC1(C)c2[nH]nc(NC(=O)C3([Si](C)(C)C)CCC3)c2CN1C(=O)Nc1c(F)cccc1C#N` [IV-185, N-(2-Cyano-6-fluorophenyl)-6,6-dimethyl-3-[1-(trimethylsilyl)cyclobutanecarboxamido]-4,6-dihydropyrrolo[3,4-c]pyrazole-5 (1H)-carboxamide], for which the Ki is not below 5000 nM at PLK1, not above 50 nM on CDK7 and not below 1000 nM at CDK2. Also, in assay [1], the GI50 was not above 100 nM.
On to `CC1(C)c2[nH]nc(NC(=O)C3([Si](C)(C)C)CC3)c2CN1C(=O)Nc1c(F)ccc2ccoc12` [III-1049, N-(6-Fluorobenzofuran-7-yl)-6,6-dimethyl-3-[1-(trimethylsilyl)cyclopropanecarboxamido]-4,6-dihydropyrrolo[3,4-c]pyrazole-5 (1H)-carboxamide], for which the Ki at PLK1 was not below 5000 nM; at CDK7, not above 50 nM; on CDK2, not below 1000 nM. The GI50 in assay [1] was not above 100 nM.
